Consider 16 molecules from patent publication US7855233B2 (Teva Pharmaceutical Industries, Ltd., priority 2009, dated 2010).

For orientation: solubility means how much of the substance goes into solution per volume.

In brackets after ≈: the same amount, converted by molar mass. Counter-ions that a name gives are not always drawn. Like-named read-outs stand apart in the source and are kept apart here.

The conditions of data set [1]: from references, cited from earlier work.
Data set [2] can be described thus: Free rasagiline base in citrate salt preparations (toluene extraction, TLC, pH). The note with it: for Content of extractable base (toluene) % on total base content: by ratio base to acid mole:mole.
Data set [3] in a line: Exposure of citrate salts to atmospheric air in open dishes at ambient temperature. The format is physicochemical. The following applies: for Changes on exposure to atmosphere (appearance): ambient temperature, open dish. From the text: (§1) The changes were observed and recorded.
The nature of data set [4]: Storage of citrate salts in sealed glass vials in refrigerator. The format is physicochemical. The following applies: 7±2° C., sealed vial.
Source text: as §1

Data set [5] can be described thus: Aqueous salt solutions held at +5° C. The format is physicochemical. The note with it: 15 hrs at +5° C. How it is done: 3.02 g of Citric acid was dissolved in 4 ml deionized water. […] Exothermic effect was observed (temperature rose from 22 to 25° C.), and most of the solid was dissolved. Then the mixture was heated to 42° and complete dissolution of the solid was observed. The resulting clear viscous syrup-like solution was held in refrigerator at +5° C. overnight.
3.45 g of Citric acid was dissolved in 5 ml deionized water and pre-heated to 30° C. […] Exothermic effect was observed (temperature rose from 30 to 36° C.), and the solid was dissolved. The resulted clear viscous syrup-like solution was held in refrigerator at +5° C. overnight.
3.46 g of Citric acid was dissolved in 5 ml deionized water. […] Exothermic effect was observed (temperature rose from 22 to 27° C.), and most of the solid was dissolved. Then the mixture was heated to 46° C. 0.5 ml water was added and complete dissolution of the solid was observed. The resulting clear viscous syrup-like solution was held in refrigerator at +5° C. overnight.

Data set [6] concerns the target B-form of the enzyme monoamine oxidase (“MAO-B”) (Homo sapiens, UniProt P27338). The note with it: reported in prior patents; cited from earlier work.
The nature of a further data set: physchem. The following applies: water.
A short description of data set [7]: Aqueous / water solubility. The note with it: aqueous citric acid reaction solution.
The conditions of data set [8]: cited from earlier work.

Chain of B-form of the enzyme monoamine oxidase (“MAO-B”) (P27338 whole entry, species assumed): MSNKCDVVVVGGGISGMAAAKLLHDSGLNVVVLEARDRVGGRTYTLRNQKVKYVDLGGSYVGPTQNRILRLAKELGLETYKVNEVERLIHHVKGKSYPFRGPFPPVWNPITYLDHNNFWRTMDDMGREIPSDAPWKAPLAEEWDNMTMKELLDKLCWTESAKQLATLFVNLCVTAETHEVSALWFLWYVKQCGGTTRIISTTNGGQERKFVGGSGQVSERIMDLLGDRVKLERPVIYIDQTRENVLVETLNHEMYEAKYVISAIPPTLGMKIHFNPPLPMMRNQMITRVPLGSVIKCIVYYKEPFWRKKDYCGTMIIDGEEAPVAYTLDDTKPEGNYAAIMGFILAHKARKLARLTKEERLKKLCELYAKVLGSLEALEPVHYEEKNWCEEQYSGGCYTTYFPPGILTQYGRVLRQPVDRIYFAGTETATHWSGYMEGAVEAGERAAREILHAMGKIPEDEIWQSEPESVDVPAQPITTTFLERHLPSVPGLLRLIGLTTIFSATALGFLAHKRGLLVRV

`Cl` [Chloride]: in [1] (Table 8c), the “Hygroscopicity by KF” value was “Not hygroscopic”.

For the molecule `O=C(O)CC(O)(CC(=O)O)C(=O)O` [Citric Acid, Citric acid], in data set [1] (Table 8b), the “Hygroscopicity by KF” value is “low”.

Consider `C#CCNC1CCc2ccccc21.C#CCNC1CCc2ccccc21.O=C(O)CC(O)(CC(=O)O)C(=O)O` (stereo not drawn) [Di-citrate, di-rasagiline citrate], for which the “Content of extractable base (toluene) % on total base content” value (“Content of extractable base (toluene) %” below) in data set [2] came out at 22.0%.

Turning to `C#CCN[C@@H]1CCc2ccccc21.C#CCN[C@@H]1CCc2ccccc21.O=S(=O)(O)CCS(=O)(=O)O` [Edisilate], the “Hygroscopicity by KF” value in data set [1] (Table 8c) is “Not hygroscopic”.

As for `C#CCN[C@@H]1CCc2ccccc21.O=C(O)CC(O)(CC(=O)O)C(=O)O` [Example 4b], the “Changes on exposure to atmosphere (appearance)” value (shortened to “Changes on exposure”) is recorded as “Powder” in [3] (0:00 hrs:min), “Semi-solid” in data set [3] (1:50-2:00 hrs:min), “Syrup” in data set [3] (6:00 hrs:min) and “Syrup” in data set [3] (7:00 hrs:min). For the same molecule, the “Appearance stored in refrigerator” value in [4] (0 month), in data set [4] (3 months) and in data set [4] (6 months) was “White powder” in each case. In data set [5], the precipitation from solution entry was “No precipitation”.

In the case of `C#CCN[C@@H]1CCc2ccccc21.C#CCN[C@@H]1CCc2ccccc21.O=C(O)CC(O)(CC(=O)O)C(=O)O` [Example 4c], the “Changes on exposure” value in data set [3] (0:00 hrs:min) is recorded as “Powder”; in data set [3] (0:50-1:00 hrs:min), “Powder”; in [3] (0:30 hrs:min), “Powder”; in data set [3] (1:50-2:00 hrs:min) it was “Powder”; in data set [3] (5:00 hrs:min), “Lump powder”. Further, the “Appearance stored in refrigerator” value in [4] (0 month), in data set [4] (3 months) and in data set [4] (6 months) was “White powder” in each case. In addition, in [5], the precipitation from solution entry was “No precipitation”.

`C#CCN[C@@H]1CCc2ccccc21.C#CCN[C@@H]1CCc2ccccc21.C#CCN[C@@H]1CCc2ccccc21.O=C(O)CC(O)(CC(=O)O)C(=O)O` [Example 4d]: the “Changes on exposure” value is listed as “Powder” in data set [3] (0:00 hrs:min), “Powder” in data set [3] (0:30 hrs:min), “Semi-solid” in data set [3] (5:00 hrs:min) and “Semi-solid” in [3] (6:00 hrs:min). The “Appearance stored in refrigerator” value in data set [4] (0 month), in [4] (3 months) and in [4] (6 months) was “White powder” each time. Further, the precipitation from solution entry in [5] is listed as “No precipitation”.

On to `C#CCN[C@@H]1CCc2ccccc21.O=C(O)CC(O)(CC(=O)O)C(=O)O` [Example 5.1], for which the “Extracted R-PAI (%)” value in data set [2] (free base extracted with toluene, solvent and citric acid:base mole proportions per example) was determined as 0.06 g-1.75%.

On to `C#CCN[C@@H]1CCc2ccccc21` [Mesylate, Rasagiline mesylate], for which the “Hygroscopicity by KF” value in [1] (Table 8c) is “Not hygroscopic”.

On to `C#CCN[C@@H]1CCc2ccccc21.O=C(O)CC(O)(CC(=O)O)C(=O)O` [Mono-citrate, mono-rasagiline citrate], for which, in data set [2], the “Content of extractable base (toluene) %” value is reported as 1.75-3.6%.

For `C#CCN[C@@H]1CCc2ccccc21` [Rasagiline, R(+)-N-propargyl-1-aminoindan], the “inhibition of MAO-B” value in [6] is “selective inhibitor”. This molecule also gave a solubility in the data set “physchem” of roughly 2000 µg/mL (≈ 11.7 mM). In data set [1] (Table 8b), the “Hygroscopicity by KF” value was “Not hygroscopic”. Moreover, the “dissolves in aqueous reaction solution” value in data set [7] is reported as “more than 10 wt %”.

`C#CCNC1CCc2ccccc21.C#CCNC1CCc2ccccc21.C#CCNC1CCc2ccccc21.O=C(O)CC(O)(CC(=O)O)C(=O)O` (stereo not drawn) [Tri-citrate, tri-rasagiline citrate]: the “Content of extractable base (toluene) %” value in data set [2] is listed as 42.7%.

Oxalate: the “Hygroscopicity by KF” value in data set [1] (Table 8c) is recorded as “Not hygroscopic”.

For Tosylate, in data set [8] (Table 8c, from references), the “Water solubility” value was 60000 to 70000 µg/mL.

Turning to rasagiline citrate, the “hygroscopicity (in words)” value in data set [3] (exposed to air/humidity at ambient temperature) was “highest hygroscopicity”.

rasagiline maleate: the “Water solubility (mg/ml)” value in data set [8] (Table 8c, from references) was “>=1000 mg/ml”. Further, in data set [8] (as described in U.S. Pat. No. 6,630,514), the solubility entry is recorded as “not less than 1000 mg/ml water”.
